Data taken from PubChem BioAssay (NCI).
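A five-concentration, 48-hour dose response in 96-well plates underlies each endpoint, interpolated linearly between surrounding concentrations. The concentration for 50% growth inhibition is given as GI50. Definition used: TGI = concentration required for complete inhibition of growth.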

Tests used:
Test in all cases: growth of human tumour cells (NCI), 48 h
SR leukemia = system: SR leukemia
786-0 renal = system: 786-0 renal
HCT-116 colon = system: HCT-116 colon
IGROV1 ovarian = system: IGROV1 ovarian
HT29 colon = system: HT29 colon
UO-31 renal = system: UO-31 renal
MALME-3M melanoma = system: MALME-3M melanoma
MDA-MB-435 = system: MDA-MB-435
SK-MEL-28 melanoma = system: SK-MEL-28 melanoma
UACC-257 melanoma = system: UACC-257 melanoma

SMILES	GI50 (SR leukemia) [µM]	TGI (SR leukemia) [µM]	GI50 (786-0 renal) [µM]	TGI (786-0 renal) [µM]	GI50 (HCT-116 colon) [µM]	TGI (HCT-116 colon) [µM]	GI50 (IGROV1 ovarian) [µM]	TGI (IGROV1 ovarian) [µM]	GI50 (HT29 colon) [µM]	TGI (HT29 colon) [µM]	GI50 (UO-31 renal) [µM]	TGI (UO-31 renal) [µM]	GI50 (MALME-3M melanoma) [µM]	TGI (MALME-3M melanoma) [µM]	GI50 (MDA-MB-435) [µM]	TGI (MDA-MB-435) [µM]	GI50 (SK-MEL-28 melanoma) [µM]	TGI (SK-MEL-28 melanoma) [µM]	GI50 (UACC-257 melanoma) [µM]	TGI (UACC-257 melanoma) [µM]
COC(=O)c1cc2oc(/C=C3/SC(=S)N(NC(C)=O)C3=O)cc2n1C	3.32	> 100	20.1	42.6	12.1	31.1	23.3	> 100	27.2	> 100	14.5	92.7	10.8	52	17.6	> 100	40.3	> 100	30.1	> 100
C=C(C)C12OC1[C@@]1(C)C(=CC2=O)CCC(O)[C@@H]1C (stereo partly specified)	–	11.3	–	13.4	–	14.2	–	13.3	–	3.89	–	41.9	–	25.1	–	21.1	–	> 100	–	> 100
NC(N)=NS(=O)(=O)c1ccc(N=Nc2c(O)c(C(=O)O)cc3ccccc23)cc1	–	> 100	–	> 100	–	> 100	–	> 100	–	> 100	–	> 100	–	> 100	–	> 100	–	> 100	–	> 100
COc1cc(-c2nn(-c3cccc(NC(=O)c4ccccc4)c3)cc2-c2ccncc2)ccc1Cl	0.25	> 100	1.1	> 100	0.421	> 100	0.572	> 100	0.365	> 45	0.4	–	0.344	–	0.184	0.508	3.26	> 100	0.63	> 100
NC(=S)N/N=C\c1nccc2c(C(F)(F)F)cccc12	0.0997	> 37	0.3	0.957	0.298	4.26	0.365	14.8	0.524	16.5	0.245	3.11	0.435	> 34.5	0.481	31.5	0.57	12.7	0.29	0.94
COc1cc(-c2nc3sccn3c2-c2ccnc(NCCNS(=O)(=O)c3ccc(F)cc3)n2)ccc1F	2.51	> 100	0.503	> 100	0.362	> 100	1.69	> 100	1.64	> 100	1.29	> 100	2.07	7.38	1.11	5.5	3.28	> 100	3.88	> 100
CN(C)c1ccc(/C=N/NC(=S)Nc2ccccc2)cc1	–	> 100	–	> 100	–	> 100	–	> 100	–	> 100	–	> 100	–	> 100	–	> 100	–	> 100	–	> 100
C=C(C)C(=O)O[C@@H]1C[C@@]2(C)O[C@@H]2C[C@H](O)/C(C)=C/[C@H]2OC(=O)C(=C)[C@@H]21	–	> 100	–	> 100	–	> 100	–	> 100	–	> 100	–	–	–	57.2	–	> 100	–	56.5	–	> 100
CC(=O)OCc1ccc2c(c1)C(O)NC(=O)O2 (stereo unspecified)	–	> 100	–	> 100	–	> 100	–	> 100	–	> 100	–	> 100	–	> 100	–	> 100	–	> 100	–	> 100
COc1ccc2ncnc(Nc3ccc(OCc4ccccc4)cc3)c2c1	11.6	> 25	4.76	10.9	8.35	> 25	6.61	> 22.2	6.54	> 25	3.62	> 17	10.1	> 25	7.22	> 21.1	9.36	> 25	7.47	> 25
CC(=C(c1ccc(OCCN2CCCCC2)cc1)c1ccc(OCCN2CCCCC2)cc1)c1ccc(Cl)cc1	0.195	0.707	0.419	0.805	0.39	0.743	0.432	0.82	0.35	0.779	0.354	0.681	0.419	0.798	0.416	0.777	0.422	0.773	0.454	0.884
COc1cc2c(cc1OC)-c1cc(OC)c(OC)cc1C(CN(C)C)C2 (stereo unspecified)	> 10	> 10	> 10	> 10	> 10	> 10	> 10	> 10	> 10	> 10	> 10	> 10	> 10	> 10	> 10	> 10	> 10	> 10	> 10	> 10
COc1ccc(CN2C(=O)C(Cl)=C(Nc3cccc(C(F)(F)F)c3)C2=O)cc1	2.77	8.88	8.02	30.1	3.45	15.4	–	–	4.55	19.7	5.54	32	2.99	22.7	2.77	9.12	4.89	18.2	11.1	27.6
CCNC(=O)C#Cc1ccc2c(C(=Nc3ccc(CN(C)C)cc3)c3ccccc3)c(O)[nH]c2c1	0.00778	2.93	0.356	2	0.0147	1.07	0.0511	> 3.29	0.013	1.39	0.0811	1.34	0.00358	0.0268	0.0127	2.51	0.00911	0.102	0.0216	0.114
Cc1cc(Nc2ccc(C)c(Cl)c2)n2nc(C(F)(F)F)nc2n1	18.4	57	18.8	40	17.2	46.2	26.7	> 100	26.6	> 100	14.1	33.4	30.4	97.9	19	55.6	29.8	> 100	–	–
Nc1nc2[nH]cc(CCc3ccc(C(=O)N[C@@H](CCC(=O)O)C(=O)O)cc3)c2c(=O)[nH]1	–	> 100	0.0611	> 100	0.127	> 100	–	> 100	35	> 100	0.19	> 100	–	> 100	–	> 100	–	> 100	–	> 100
C=C1C[C@H](O)[C@H](Br)C(C)(C)[C@@]12CCC(C)=C(Cl)C2	0.237	11.1	0.57	11.7	0.32	–	0.25	11.7	0.26	1.45	0.612	3.25	0.31	2.3	0.327	1.72	0.458	2.78	–	–
Cc1ccc(-c2nc(N3CCNCC3)c3oc(-c4ccc(C)cc4)nc3n2)cc1	0.371	1.85	1.69	3.24	–	–	1.92	3.81	1.88	3.42	1.76	3.57	7.23	18.9	2.3	6.22	6.14	11.5	> 45.7	> 65.9
OC(c1cc(C(F)(F)F)nc2c(C(F)(F)F)cccc12)C1CCCCN1 (stereo unspecified)	3.59	8.27	1.88	3.77	1.79	3.22	2.21	5.58	1.99	3.92	2.63	12.3	2.6	7.36	1.8	3.66	1.84	3.29	2.2	6.53
CC(C)(C)[Si](C)(C)OC1[C@@H](O[Si](C)(C)C(C)(C)C)[C@@H](CNC(=O)NC(=O)C(F)(F)F)O[C@H]1n1cnc2c(NC(=O)Nc3ccccc3)ncnc21 (stereo partly specified)	1.52	5.25	6.58	13.4	2.46	8.47	8.32	17.4	4.33	11.1	7.68	15.6	10.4	19.5	5.52	16.4	8.04	15.2	7.19	15
Cc1ccc(NC2=C3CCCCC3OC2=O)cc1 (stereo unspecified)	39.5	> 100	> 100	> 100	66.1	> 100	54.3	> 100	79.8	> 100	27.6	> 100	39.2	> 100	55.2	> 100	> 100	> 100	63.1	> 100
CC(=O)Nc1cc2ccc(=O)oc2cc1Cl	–	> 100	–	> 100	–	> 100	–	> 100	–	> 100	–	> 100	–	> 100	–	> 100	–	> 100	–	> 100
CN1CCN(c2ccc(Nc3ncc(Cl)c(NC[C@@H]4CCCO4)n3)cc2)CC1	0.513	6.03	1.68	15.1	–	–	1.56	> 100	1.72	> 100	–	–	1.49	8.06	1.64	15.3	4.18	21.5	6.46	32.6
CC(C)[C@@H]1NC(=O)[C@]2(C)CSC(=N2)c2ccnc(c2)CNC(=O)C[C@@H](/C=C/CCS)OC1=O	0.0641	> 100	0.911	> 28	0.115	1.09	0.159	2.43	0.242	1.57	1.56	23.1	–	–	0.111	6.13	0.119	3.46	0.0376	0.526
CC(=O)OC1(C)N=NC2(CCCCC2)O1 (stereo unspecified)	–	> 100	–	> 100	–	> 100	–	> 100	–	> 100	–	–	–	> 100	–	> 100	–	> 100	–	> 100
Cc1cc2c(cc1C)[n+](=O)c(C(=O)c1ccccc1)c(C(F)F)n2[O-]	4.39	98.4	32	> 100	30.8	> 100	15.1	> 100	17.2	> 100	19.2	> 100	23.2	62.9	26.3	> 100	17.8	> 100	–	–
O=C(NC1CCCCC1)NS(=O)(=O)c1ccc(N2N=C3c4ccccc4CC3C2c2ccc(Cl)cc2)cc1 (stereo unspecified)	0.406	1.85	13.3	26.3	5.15	18.6	5.98	25.5	32.5	> 100	20	40.7	–	–	18.5	50.3	29.7	> 100	19.7	53
C=C1C(=O)O[C@H]2[C@H]1CC/C(CNC(=O)c1cc3ccccc3[nH]1)=C\CC[C@@]1(C)O[C@@H]21	0.319	3.4	1.69	3.43	1	2.21	1.32	5.4	1.11	3.09	1.29	2.9	1.78	3.6	1.58	4.63	–	–	–	–
C[C@@H]1CC[C@H]2C(C)(C)[C@H]3C[C@@]12CC[C@@]3(C)O	–	48.6	–	> 100	–	> 100	–	> 100	–	> 100	–	> 100	–	–	–	> 100	–	> 100	–	> 100
